Results taken from patent US20070266957A1 (priority 2004, published 2007).
Read-outs that look alike come from different tables or passages of the source.

System: influenza virus (H3N2 type human vaccine New Caledonia strain)
Type: cell-based

## hinokitiol copper complex
  anti-influenza virus activity: ineffective
Concentration 0.8 μg/ml
  FFU: 280 FFU
Concentration 4 μg/ml
  FFU: Exfoliation
Concentration 20 μg/ml
  FFU: Exfoliation
Concentration 100 μg/ml
  FFU: Exfoliation
